Reference: patent US5312816A, “Method of combatting osteoporosis in mammalian subjects, utilizing organic boron compounds” (priority 1993, dated 1994)
pIC50: −log10 of the molar value.

Tests used:
Trypsin [1] = assay: Mouse macrophage trypsin (BAEE) activity; type: cell-based; conditions: read-out: Trypsin BAEE IC50; Table VIII; mouse macrophages, 60 min incubation
Trypsin [2] = assay: Human osteoporosis fibroblasts trypsin (BAEE) activity; type: cell-based; conditions: read-out: Trypsin BAEE IC50; Table XI; human osteoporosis fibroblasts, 60 min incubation
Source text: 1. Trypsin- N-benzoyl-L-arginine ethyl ester pH 8.0, hydrolytic product 253 nm.

Aryl sulphatase [3] = assay: Mouse macrophage aryl sulphatase activity; type: cell-based; conditions: read-out: Aryl Sulphatase IC50; Table VII; mouse macrophage cultured cells, 60 min incubation
Cathepsin D [4] = molecular target: T1, Cathepsin D (Mus musculus, UniProt P18242); assay: Mouse hepatic lysosomal cathepsin D activity; type: biochemical; conditions: for pIC50: read-out: Cathepsin D IC50, Table V, mouse hepatic, 60 min incubation
T1 construct: azocasein assay pH 5.0
Source text: (§1) 1. Cf1 male mouse hepatic 10% homogenates in 0.25M sucrose+0.001MEDTA,pH 7.2.
(§2) Lysosomal Enzymes - free and total [triton X-100].
(§3) 2. Acid Cathepsin D -azocasein-pH 5.0, hydrolytic azo-peptide produce 366 nm.
Cathepsin azo casein activity -

Sprague Dawley Rats = assay: Anti-inflammatory activity in Sprague Dawley rats; type: in vivo; conditions: Table IV; 8 mg/kg I.P.
[5] = molecular target: Clostridium histolyticum Collagenase Type II; assay: Commercial collagenase type II; type: biochemical; conditions: Table IX; commercial enzyme preparation
Source text: 4. Collagenase II, Clostridium histolyticum, cartilage collagen.

Cf1 male mice [6] = assay: Writhing reflex, 0.6% acetic acid; type: in vivo; design: response vs control in vivo: dose or concentration left out as unconfirmed; conditions: Mus musculus, ip, read-out: Writhing Reflex Cf1 Mice
[7] = system: Prostaglandin cyclooxygenase; assay: Mouse macrophage prostaglandin cyclooxygenase activity; type: cell-based; conditions: read-out: Prostaglandin Cyclooxygenase IC50; Table VIII; mouse macrophages, 60 min incubation
Source text: 3. Mouse macrophages J774A.1 BALB/c
(§4) Prostaglandin synthetase purified beef seminal vesicle ^3 H arachidonic acid (86.2 Ci/mmol), tlc separation.

5'-lipoxygenase = molecular target: T2, 5'-lipoxygenase (Mus musculus, UniProt P48999); assay: Mouse hepatic 5'-lipoxygenase activity; type: biochemical
T2 construct: Cf1 male mouse hepatic 10% homogenates; from tissue; host or cells: CF1 male mouse liver, 10% homogenate
T2 sequence (P48999 1-674): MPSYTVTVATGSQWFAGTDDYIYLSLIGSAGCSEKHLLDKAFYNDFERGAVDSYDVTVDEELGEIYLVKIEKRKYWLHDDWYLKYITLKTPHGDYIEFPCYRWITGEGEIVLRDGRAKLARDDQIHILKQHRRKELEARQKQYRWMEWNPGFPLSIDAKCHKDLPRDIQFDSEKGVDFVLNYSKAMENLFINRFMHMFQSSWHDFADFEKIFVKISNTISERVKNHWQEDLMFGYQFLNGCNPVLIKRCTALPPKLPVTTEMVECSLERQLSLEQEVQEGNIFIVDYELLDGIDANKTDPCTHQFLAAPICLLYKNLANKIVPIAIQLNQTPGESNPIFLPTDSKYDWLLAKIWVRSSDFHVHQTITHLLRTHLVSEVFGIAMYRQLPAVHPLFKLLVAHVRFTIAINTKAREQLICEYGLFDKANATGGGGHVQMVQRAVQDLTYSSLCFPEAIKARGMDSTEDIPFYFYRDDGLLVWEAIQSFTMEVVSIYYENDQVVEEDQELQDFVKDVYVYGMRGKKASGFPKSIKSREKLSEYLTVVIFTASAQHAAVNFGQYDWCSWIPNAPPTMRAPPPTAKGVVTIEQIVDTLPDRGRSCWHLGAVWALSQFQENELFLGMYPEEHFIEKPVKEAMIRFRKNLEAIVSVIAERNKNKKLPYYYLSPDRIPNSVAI
Source text: as §1
5'-lipoxygenase Mylari, B.L., et al, J. Med.

Aryl sulphatase [8] = assay: Human osteoporosis fibroblasts aryl sulphatase activity; type: cell-based; conditions: read-out: Aryl Sulphatase IC50; Table X; human osteoporosis fibroblasts
Source text: 3. Aryl sulphatase- p-nitrocatechol sulfate, pH
5. 8 p-nitro-catechol product 510 nm.

Cathepsin D [9] = molecular target: T3, Cathepsin D (Homo sapiens, UniProt P07339); assay: Human osteoporosis fibroblasts cathepsin D (azo-casein) activity; type: cell-based; conditions: read-out: Cathepsin D IC50; Table X; human osteoporosis fibroblasts, DMEM +10% FCS + P/S
T3 construct: azocasein assay pH 5.0
Source text: Osteoporosis Human Fibroblast-CRL-1140, Be SA1

[10] = system: Prostaglandin cyclooxygenase; assay: Human osteoporosis fibroblasts prostaglandin cyclooxygenase activity; type: cell-based; conditions: read-out: Prostaglandin Cyclooxygense IC50, Table XI, 60 min incubation
Acid phosphatase [11] = assay: Mouse macrophage acid phosphatase activity; type: cell-based; conditions: read-out: Acid Phosphatase IC50; Table VII; mouse macrophage cultured cells, 60 min incubation
Acid phosphatase [12] = assay: Human osteoporosis fibroblasts acid phosphatase activity; type: cell-based; conditions: read-out: Acid Phosphatase IC50; Table X; human osteoporosis fibroblasts
Source text: (§5) 1. Acid phosphatase -beta glycerol-3-phosphate, pH 5.0, released IP 720 nm.

Cathepsin [13] = assay: Human leukocyte cathepsin; type: cell-based; conditions: read-out: Cathepsin IC50; Table XII; human leukocytes, 60 min incubation
Source text: 5. Human peripheral leukocytes, RPMI-1788
as §3

Elastase [14] = assay: Human osteoporosis fibroblasts elastase activity; type: cell-based; conditions: read-out: Elastase IC50; Table XI; human osteoporosis fibroblasts, 60 min incubation
Source text: 2. Elastase- N-succinyl-L-alanyl-L-alanine-p-nitroanilide, pH 8.0, p-nitro anilide 410 nm.

Acid phosphatase [15] = assay: Mouse hepatic lysosomal acid phosphatase activity; type: biochemical; conditions: for pIC50: Table V, mouse hepatic, 60 min incubation
Source text: as §1, §2, §5
Acid phosphatase activity -

Elastase [16] = assay: Mouse macrophage elastase activity; type: cell-based; conditions: read-out: Elastase IC50; Table VIII; mouse macrophages, 60 min incubation
[17] = system: urinary excretion of calcium, magnesium, phosphorus; conditions: in the diet at 3 mg/day; cited from earlier work
in vivo = conditions: mouse, Table 1, N=6
Experimental: Amine borane compounds (0 to 100 mg/kg) were administered to CF1 male mice as a single injection with six mice for each dosage. Mice were weighed daily and the number of deaths was recorded each day for a 14 day period. The LD50 value was determined by the procedure of S.C. Gad and C.S. Weil, "Statistics for Toxicologists" in Principles and Methods of Toxicology, A.W. Hayes, Ed., 2nd Edition, P 435-483 Raven Press, New York 1982.

Acid phosphatase [18] = assay: Rat PMNs acid phosphatase activity; type: cell-based; conditions: 5 × 10^-6 M, N=6; 5 µM
Source text: (§6) 2. PMNs-polymorphonuclear neutrophils-rat peritoneal cavity 0.5% oyster glycogen.
as §5

Sprague Dawley male rats [19] = assay: Chronic adjuvant arthritis screen, Mycobacterium butyricum; type: in vivo; conditions: Table 1; Indomethacin 10 mg/kg
Phosphorus = assay: Serum and urine inorganic phosphorus levels in vivo; conditions: Cf1 male mice, 8 mg/kg/day I.P. 14 days, N=6
cAMP = assay: PMNs cAMP levels, Gilman's radioimmune assay; type: cell-based, rat; conditions: 5 × 10^-6 M, N=6
Source text: as §6
cAMP levels Gilman's radioimmune assay. ^3 H(G)Cyclic-3', 5'-adenosine monophosphate.

Prostaglandin synthetase = molecular target: T4, Prostaglandin synthetase (Bos taurus, UniProt O62664); assay: Prostaglandin synthetase (cyclooxygenase), purified beef seminal vesicle; type: biochemical
T4 construct: Prostaglandin synthetase purified beef seminal vesicle; from tissue
T4 sequence (O62664 25-600): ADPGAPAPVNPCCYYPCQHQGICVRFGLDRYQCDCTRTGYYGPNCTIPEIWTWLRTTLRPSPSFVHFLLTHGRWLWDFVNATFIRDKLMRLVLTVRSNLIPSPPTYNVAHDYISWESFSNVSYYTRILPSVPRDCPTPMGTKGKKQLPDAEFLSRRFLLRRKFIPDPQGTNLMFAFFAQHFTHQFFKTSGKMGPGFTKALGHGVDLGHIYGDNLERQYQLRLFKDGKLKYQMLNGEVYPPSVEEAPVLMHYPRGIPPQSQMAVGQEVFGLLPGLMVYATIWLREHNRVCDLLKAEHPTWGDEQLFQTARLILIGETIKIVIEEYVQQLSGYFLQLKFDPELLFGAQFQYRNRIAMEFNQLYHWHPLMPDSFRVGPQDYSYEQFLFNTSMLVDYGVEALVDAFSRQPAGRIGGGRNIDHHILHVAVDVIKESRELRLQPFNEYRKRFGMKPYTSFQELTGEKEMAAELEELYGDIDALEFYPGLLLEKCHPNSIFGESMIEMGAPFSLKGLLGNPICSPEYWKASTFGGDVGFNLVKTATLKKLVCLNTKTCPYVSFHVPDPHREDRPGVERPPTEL
Source text: as §4

[20] = system: Hepatic oxidative phosphorylation; assay: Hepatic oxidative phosphorylation, Gilson oxygraph; type: biochemical, mouse; conditions: 10^-6 M; 1 µM
Source text: as §1

Cf1 male mice [21] = assay: Writhing reflex, 0.6% acetic acid; type: in vivo; conditions: Table 1; Indomethacin 10 mg/kg
Experimental: Writhing reflex- Cf1 -male mice- 0.6% acetic acid I.P. drugs administered @20 mg/kg/ I.P. 20 min. later - the # of stretches/10 min.
Hendershot, L.C., et al, J.

Cf1 male mice [22] = assay: Anti-inflammatory screen, Winter's test, 2% carrageenan hind foot; type: in vivo; conditions: Table 1; drugs 8 or 10 mg/kg I.P. 2X; Indomethacin 10 mg/kg
Experimental: Anti-inflammatory Screen- Cf1 - male mice-Winter's Test 2% carrageenan S.C. plantar surface of hind foot, drugs administered @8 or 10 mg/kg I.P. 2X
Winter, C.A., et al, Proc. Soc.

Cathepsin [23] = molecular target: T5, Cathepsin (Rattus norvegicus, UniProt P24268); assay: Rat PMNs cathepsin activity; type: cell-based; conditions: pH 5; 5 × 10^-6 M, N=6; read-out: Rat PMNs Cathep.
T5 construct: azocasein assay pH 5.0
Source text: as §6, §3

Hydroxyproline = assay: Serum and urine hydroxyproline levels in vivo; conditions: Cf1 male mice, 8 mg/kg/day I.P. 14 days, N=6
Calcium = assay: Serum and urine calcium levels in vivo; conditions: Cf1 male mice, 8 mg/kg/day I.P. 14 days, N=6
Sprague Dawley male rats [24] = assay: Anti-pleurisy screen, Evans blue + carrageenan; type: in vivo; conditions: Table 1

T1 sequence (P18242 65-410): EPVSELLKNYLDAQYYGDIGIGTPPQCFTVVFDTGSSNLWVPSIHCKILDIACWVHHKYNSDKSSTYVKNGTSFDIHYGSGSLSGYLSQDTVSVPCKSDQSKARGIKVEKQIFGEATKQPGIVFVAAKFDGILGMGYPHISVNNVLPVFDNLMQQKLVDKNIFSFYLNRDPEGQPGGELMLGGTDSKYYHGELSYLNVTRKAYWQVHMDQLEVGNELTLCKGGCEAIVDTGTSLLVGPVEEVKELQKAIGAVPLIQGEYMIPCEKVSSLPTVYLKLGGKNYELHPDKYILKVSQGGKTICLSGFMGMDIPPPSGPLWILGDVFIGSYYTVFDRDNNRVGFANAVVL
T3 sequence (P07339 65-412): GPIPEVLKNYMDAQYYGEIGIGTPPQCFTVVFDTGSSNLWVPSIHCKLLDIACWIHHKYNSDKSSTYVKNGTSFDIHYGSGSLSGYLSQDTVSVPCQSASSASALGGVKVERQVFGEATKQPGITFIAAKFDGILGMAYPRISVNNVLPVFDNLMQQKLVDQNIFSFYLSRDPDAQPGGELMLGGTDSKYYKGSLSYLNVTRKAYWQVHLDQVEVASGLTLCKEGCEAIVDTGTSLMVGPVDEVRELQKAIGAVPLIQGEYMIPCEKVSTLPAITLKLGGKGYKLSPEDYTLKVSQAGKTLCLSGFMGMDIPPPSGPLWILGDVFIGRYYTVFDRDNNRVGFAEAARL
T5 sequence (P24268 65-407): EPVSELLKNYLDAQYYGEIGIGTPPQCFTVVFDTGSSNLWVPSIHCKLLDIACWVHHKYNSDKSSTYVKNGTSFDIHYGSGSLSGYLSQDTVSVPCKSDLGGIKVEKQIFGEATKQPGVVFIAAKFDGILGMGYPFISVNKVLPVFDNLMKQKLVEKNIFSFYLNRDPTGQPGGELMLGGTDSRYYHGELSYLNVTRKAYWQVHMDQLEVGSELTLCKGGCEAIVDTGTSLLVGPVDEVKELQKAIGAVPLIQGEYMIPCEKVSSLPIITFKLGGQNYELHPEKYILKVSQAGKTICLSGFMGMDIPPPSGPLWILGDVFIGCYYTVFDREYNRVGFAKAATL

C[NH+](C)[BH2-]C#N [Compound 10, Dimethylamine-cyanoborane]
pIC50 (Trypsin [1]): 5.61
pIC50 (Trypsin [2]): 5.19
pIC50 (Aryl sulphatase [3]): 5.05
pIC50 (Cathepsin D [4]): 5.49
Anti-Inflammatory Activity Sprague Dawley Rats (Sprague Dawley Rats): 61 % Control
pIC50 [5]: 3.97
response vs control in vivo (Cf1 male mice [6]): 14.7%
pIC50 [7]: 5.23
pIC50 (5'-lipoxygenase): 4.64
pIC50 (Aryl sulphatase [8]): 5.10
pIC50 (Cathepsin D [9]): 5.89
pIC50 [10]: 5.25
pIC50 (Acid phosphatase [11]): 5.95
pIC50 (Acid phosphatase [12]): 5.06
pIC50 (Cathepsin [13]): 4.27
pIC50 (Elastase [14]): 5.47
pIC50 (Acid phosphatase [15]): 5.05
pIC50 (Elastase [16]): 5.60

C[B-](C#N)(C#N)[N+](C)(C)C [Compound 16, Trimethylamine-methyldicyanoborane]
pIC50 (Trypsin [1]): 5.79
pIC50 (Trypsin [2]): 5.47
pIC50 (Aryl sulphatase [3]): 5.07
pIC50 [5]: 3.96
response vs control in vivo (Cf1 male mice [6]): 33.9%
pIC50 [7]: 5.52
pIC50 [10]: 5.03
pIC50 (Acid phosphatase [11]): 5.96
pIC50 (Cathepsin [13]): 4.19
pIC50 (Elastase [14]): 5.44
pIC50 (Elastase [16]): 5.69

O.O.O.O.O.O.O.O.O.O.[Na+].[Na+].[O-]B1OB2OB([O-])OB(O1)O2 [sodium borate]
urinary excretion of calcium, magnesium and perhaps phosphorus [17]: blocks the urinary excretion of calcium, magnesium and perhaps phosphorus

C[N+](C)(C)[BH2-]C#N [Compound 2, Trimethylamine-cyanoborane]
LD50 at 336 h (in vivo): 70 mg/kg
Rat PMNs Acid Phoph. (Acid phosphatase [18]): 35 + 5 % Control
Anti-arthritic (Sprague Dawley male rats [19]): 4 % Control
pIC50 (Trypsin [1]): 5.85
pIC50 (Trypsin [2]): 5.40
pIC50 (Aryl sulphatase [3]): 5.03
activity at 5 µM (Cathepsin D [4]; pH 5, read-out: Mouse Liver Cathep.): 6%
pIC50 (Cathepsin D [4]): 6.14
Anti-Inflammatory Activity Sprague Dawley Rats (Sprague Dawley Rats): 65 % Control
response vs control in vivo (Cf1 male mice [6]): 18%
pIC50 [7]: 5.23
Phosphorus serum (Phosphorus): 81.6 % Control
Phosphorus urine (Phosphorus): 39.6 % Control
pIC50 (Aryl sulphatase [8]): 5.05
PMNs cAMP (cAMP): 245 % Control
pIC50 (Cathepsin D [9]): 5.70
pIC50 [10]: 5.37
pIC50 (Prostaglandin synthetase): 5.23
pIC50 (Acid phosphatase [11]): 5.98
pIC50 (Acid phosphatase [12]): 4.80
pIC50 (Cathepsin [13]): 4.11
Hepatic Oxidative Phosphorylation Succinate State 3 [20]: 51 + 20 % Control
Hepatic Oxidative Phosphorylation Succinate State 4 [20]: 133 + 20 % Control
Hepatic Oxidative Phosphorylation alpha-Ketoglutrate State 3 [20]: 41 + 9 % Control
Hepatic Oxidative Phosphorylation alpha-Ketoglutrate State 4 [20]: 85 + 21 % Control
Writhing (Cf1 male mice [21]): 18 % Control
Anti-inflammatory (Cf1 male mice [22]): 42 % Control
pIC50 (Elastase [14]): 5.48
activity at 5 µM (Cathepsin [23]): 4%
Hydroxyproline serum (Hydroxyproline): 71.7 % Control
Hydroxyproline urine (Hydroxyproline): 42.5 % Control
Calcium serum (Calcium): 109.7 % Control
Calcium urine (Calcium): 50.8 % Control
Mouse Liver Acid Phosph. (Acid phosphatase [15]; 5 × 10^-6 M, N=6, 5 µM): 69 + 4 % Control
pIC50 (Acid phosphatase [15]): 5.45
Anti-pleurisy (Sprague Dawley male rats [24]): 65 % Control
pIC50 (Elastase [16]): 5.87
